Test results reported in ChEMBL document CHEMBL4359905, “Discovery, structural insight, and bioactivities of BY27 as a selective inhibitor of the second bromodomains of BET proteins” (Eur J Med Chem, 2019).

How the values were obtained:
[1] = Oral bioavailability in ICR mouse at 15 mg/kg measured upto 24 hrs by LC-MS/MS analysis; assay type: ADME, organism-based; details: in vivo
[2] = tested on: MV4-11; test: Downregulation of cMyc mRNA expression in human MV4-11 cells after 24 hrs by qRT-PCR analysis; assay type: functional, cell-based
[3] = AUC (0 to t) in ICR mouse at 5 mg/kg, iv measured upto 24 hrs by LC-MS/MS analysis; assay type: ADME, organism-based; set-up: dose 5 mg/kg, time < 24 hr, route intravenous; details: in vivo
[4] = Clearance in ICR mouse at 5 mg/kg, iv measured upto 24 hrs by LC-MS/MS analysis; assay type: ADME, organism-based; details: in vivo
[5] = tested on: MV4-11; test: Antitumour activity against human MV4-11 cells xenografted in BALB/c nu/nu mouse assessed as tumour growth inhibition administered via oral gavage once daily for 21 days and measured every 2 to 3 days by vernier caliper method; assay type: functional, cell-based
[6] = tested on: MV4-11; test: Downregulation of p21 expression level in tumor tissue in BALB/c nu/nu mouse xenografted with human MV4-11 cells at 150 mg/kg, po administered via gavage as a single dose measured after 24 hrs by western blot analysis; assay type: functional; details: MV4-11, po
[7] = biological target: T1, Bromodomain-containing protein 3 (Homo sapiens, UniProt Q15059); test: Selectivity ratio of Kd for human partial length BRD3 BD1 (P24 to E144 residues) expressed in bacterial expression system to Kd for human partial length BRD3 BD2 (G306 to P416 residues) expressed in bacterial expression system
Target sequence in this assay (Q15059 2-726 limits assumed): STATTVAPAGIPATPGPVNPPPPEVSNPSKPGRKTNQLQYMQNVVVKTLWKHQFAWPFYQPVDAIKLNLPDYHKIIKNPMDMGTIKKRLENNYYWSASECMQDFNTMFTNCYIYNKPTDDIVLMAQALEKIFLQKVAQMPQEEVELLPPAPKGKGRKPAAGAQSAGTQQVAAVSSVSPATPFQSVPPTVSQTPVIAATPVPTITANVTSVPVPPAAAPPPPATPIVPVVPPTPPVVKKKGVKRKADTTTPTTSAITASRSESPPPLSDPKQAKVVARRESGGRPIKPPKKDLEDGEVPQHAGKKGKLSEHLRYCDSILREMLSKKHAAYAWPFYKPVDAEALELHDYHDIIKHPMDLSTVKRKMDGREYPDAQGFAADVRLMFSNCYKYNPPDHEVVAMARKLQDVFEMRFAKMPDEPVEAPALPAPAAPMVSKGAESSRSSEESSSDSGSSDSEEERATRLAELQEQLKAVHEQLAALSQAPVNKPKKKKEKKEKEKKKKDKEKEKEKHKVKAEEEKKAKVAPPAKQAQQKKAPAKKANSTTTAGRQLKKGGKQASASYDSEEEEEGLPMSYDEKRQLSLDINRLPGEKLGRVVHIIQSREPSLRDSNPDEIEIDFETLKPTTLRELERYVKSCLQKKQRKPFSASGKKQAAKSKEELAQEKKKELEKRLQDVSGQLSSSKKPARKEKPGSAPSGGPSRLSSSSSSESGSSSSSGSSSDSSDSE

[8] = biological target: T2, Bromodomain-containing protein 2 (Homo sapiens, UniProt P25440); test: Binding affinity to human partial length BRD2 BD1 isoform 1 (K71 to N194 residues) expressed in bacterial expression system by bromoscan assay
Target sequence in this assay (P25440 whole entry, the tested form may be a part, canonical isoform): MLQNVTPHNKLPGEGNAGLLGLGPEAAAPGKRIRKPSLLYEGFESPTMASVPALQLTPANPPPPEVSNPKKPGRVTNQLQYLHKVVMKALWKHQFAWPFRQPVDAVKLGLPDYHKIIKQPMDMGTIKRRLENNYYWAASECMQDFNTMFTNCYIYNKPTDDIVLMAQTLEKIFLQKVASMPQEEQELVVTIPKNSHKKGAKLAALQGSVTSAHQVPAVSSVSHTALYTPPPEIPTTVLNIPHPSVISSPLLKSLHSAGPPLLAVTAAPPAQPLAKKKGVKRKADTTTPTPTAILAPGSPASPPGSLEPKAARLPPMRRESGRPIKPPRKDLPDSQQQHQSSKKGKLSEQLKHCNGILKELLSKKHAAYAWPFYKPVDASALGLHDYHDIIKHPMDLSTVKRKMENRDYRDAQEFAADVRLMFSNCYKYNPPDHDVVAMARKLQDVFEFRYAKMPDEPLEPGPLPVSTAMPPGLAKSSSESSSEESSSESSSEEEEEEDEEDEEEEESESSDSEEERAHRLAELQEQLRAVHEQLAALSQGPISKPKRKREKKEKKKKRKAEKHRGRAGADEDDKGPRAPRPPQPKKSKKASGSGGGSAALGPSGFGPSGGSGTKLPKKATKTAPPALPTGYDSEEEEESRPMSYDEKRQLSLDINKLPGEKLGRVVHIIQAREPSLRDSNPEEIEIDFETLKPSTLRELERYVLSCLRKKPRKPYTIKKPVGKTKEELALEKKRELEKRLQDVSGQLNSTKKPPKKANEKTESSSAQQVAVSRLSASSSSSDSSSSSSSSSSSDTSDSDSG

[9] = biological target: T2, Bromodomain-containing protein 2; test: Binding affinity to human recombinant BRD2 BD2 (349 to 460 residues) by fluorescence polarization assay
Target sequence in this assay (P25440 whole entry, the tested form may be a part, canonical isoform): as above

[10] = biological target: T3, Bromodomain-containing protein 4 (Homo sapiens, UniProt O60885); test: Binding affinity to human partial length BRD4 BD1 isoform long (N44 to E168 residues) expressed in bacterial expression system by bromoscan assay
[11] = biological target: T1, Bromodomain-containing protein 3; test: Binding affinity to human partial length BRD3 BD2 (G306 to P416 residues) expressed in bacterial expression system by bromoscan assay
Target sequence in this assay (Q15059 whole entry, the tested form may be a part, canonical isoform): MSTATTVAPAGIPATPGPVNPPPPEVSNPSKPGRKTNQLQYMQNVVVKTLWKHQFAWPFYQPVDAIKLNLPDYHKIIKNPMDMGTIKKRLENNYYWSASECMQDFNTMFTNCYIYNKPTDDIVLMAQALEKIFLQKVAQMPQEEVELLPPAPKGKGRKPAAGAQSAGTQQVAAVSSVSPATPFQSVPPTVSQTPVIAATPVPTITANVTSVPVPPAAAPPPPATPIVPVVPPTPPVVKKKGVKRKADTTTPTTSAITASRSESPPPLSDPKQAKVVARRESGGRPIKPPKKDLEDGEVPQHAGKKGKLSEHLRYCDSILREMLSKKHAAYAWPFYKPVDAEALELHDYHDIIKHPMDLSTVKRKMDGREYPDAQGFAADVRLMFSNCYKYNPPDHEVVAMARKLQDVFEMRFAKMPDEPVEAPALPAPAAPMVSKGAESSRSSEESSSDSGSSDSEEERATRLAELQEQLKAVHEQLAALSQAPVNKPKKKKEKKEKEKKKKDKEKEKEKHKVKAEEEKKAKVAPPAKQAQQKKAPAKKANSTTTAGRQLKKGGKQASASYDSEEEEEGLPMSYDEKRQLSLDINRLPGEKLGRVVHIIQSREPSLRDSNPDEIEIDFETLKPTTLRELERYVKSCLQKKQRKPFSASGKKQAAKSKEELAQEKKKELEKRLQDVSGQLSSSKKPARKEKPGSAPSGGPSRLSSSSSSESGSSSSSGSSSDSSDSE

[12] = tested on: MV4-11; test: Antitumour activity against human MV4-11 cells xenografted in BALB/c nu/nu mouse assessed as tumour growth inhibition at 100 mg/kg, po via gavage administered once daily for 21 days and measured every 2 to 3 days by vernier caliper method relative to control; assay type: functional; details: MV4-11, po, read-out: GI
[13] = biological target: T1, Bromodomain-containing protein 3; test: Binding affinity to human partial length BRD3 BD1 (P24 to E144 residues) expressed in bacterial expression system by bromoscan assay
Target sequence in this assay (Q15059 whole entry, the tested form may be a part, canonical isoform): as above

[14] = biological target: T2, Bromodomain-containing protein 2; test: Selectivity ratio of Kd for human partial length BRD2 BD1 isoform 1 (K71 to N194 residues) expressed in bacterial expression system to Kd for human partial length BRD2 BD2 isoform 1 (E348 to D455 residues) expressed in bacterial expression system
Target sequence in this assay (P25440 whole entry, looked up, the tested form may be a part, canonical isoform): as the sequence (P25440 whole entry, the tested form may be a part, canonical isoform) above

[15] = Cmax in ICR mouse at 15 mg/kg, po measured upto 24 hrs by LC-MS/MS analysis; assay type: ADME, organism-based; set-up: dose 15 mg/kg, route oral; details: in vivo
[16] = tested on: MM1.S; test: Antiproliferative activity against human MM1S cells assessed as cell growth inhibition after 4 days by CCK8 assay; assay type: functional, cell-based; details: 96 h
[17] = Volume of distribution at steady state in ICR mouse at 5 mg/kg, iv measured upto 24 hrs by LC-MS/MS analysis; assay type: ADME, organism-based; details: in vivo, read-out: Vdss
[18] = biological target: T4, Bromodomain testis-specific protein (Homo sapiens, UniProt Q58F21); test: Binding affinity to human partial length BRDT bromodomain 2 isoform b (K250 to E382 residues) expressed in bacterial expression system by bromoscan assay
[19] = tested on: MV4-11; test: Antitumour activity against human MV4-11 cells xenografted in BALB/c nu/nu mouse assessed as downregulation of c-Myc expression level in tumor tissue at 150 mg/kg, po administered via gavage as a single dose measured after 24 hrs by western blot analysis; assay type: functional; details: MV4-11, po
[20] = Half-life in ICR mouse at 5 mg/kg, iv measured upto 24 hrs by LC-MS/MS analysis; assay type: ADME, organism-based; details: in vivo
[21] = biological target: T3, Bromodomain-containing protein 4; test: Binding affinity to human recombinant BRD4 BD1 (44 to 168 residues) by fluorescence polarization assay
[22] = tested on: MV4-11; test: Antitumour activity against human MV4-11 cells xenografted in BALB/c nu/nu mouse assessed as downregulation of c-Myc expression level in tumor tissue at 150 mg/kg, po administered via gavage as a single dose measured after 6 hrs by western blot analysis; assay type: functional; details: MV4-11, po
[23] = Cmax in ICR mouse at 5 mg/kg, iv measured upto 24 hrs by LC-MS/MS analysis; assay type: ADME, organism-based; set-up: dose 5 mg/kg, route intravenous; details: in vivo
[24] = tested on: MV4-11; test: Upregulation of p21 mRNA expression in human MV4-11 cells after 24 hrs by qRT-PCR analysis; assay type: functional, cell-based
[25] = biological target: T1, Bromodomain-containing protein 3; test: Selectivity index, ratio of Ki for human recombinant BRD3 BD1 (24 to 144 residues) to Ki for human recombinant BRD3 BD2 (306 to 417 residues)
Target sequence in this assay (Q15059 2-726 limits assumed): as the sequence (Q15059 2-726 limits assumed) above

[26] = biological target: T3, Bromodomain-containing protein 4; test: Selectivity ratio of Kd for human partial length BRD4 BD1 isoform long (N44 to E168 residues) expressed in bacterial expression system to Kd for human partial length BRD4 BD2 isoform long (K333 to E460 residues) expressed in bacterial expression system
[27] = biological target: T3, Bromodomain-containing protein 4; test: Binding affinity to human partial length BRD4 BD2 isoform long (K333 to E460 residues) expressed in bacterial expression system by bromoscan assay
[28] = biological target: T4, Bromodomain testis-specific protein; test: Selectivity ratio Kd for human partial length BRDT bromodomain 1 isoform b (N21 to E137 residues) expressed in bacterial expression system to Kd for human partial length BRDT bromodomain 2 isoform b (K250 to E382 residues) expressed in bacterial expression system
[29] = biological target: T2, Bromodomain-containing protein 2; test: Binding affinity to human partial length BRD2 BD2 isoform 1 (E348 to D455 residues) expressed in bacterial expression system by bromoscan assay
Target sequence in this assay (P25440 whole entry, the tested form may be a part, canonical isoform): as the sequence (P25440 whole entry, the tested form may be a part, canonical isoform) above

[30] = Half-life in ICR mouse at 15 mg/kg, po measured upto 24 hrs by LC-MS/MS analysis; assay type: ADME, organism-based; details: in vivo
[31] = biological target: T1, Bromodomain-containing protein 3; test: Binding affinity to human recombinant BRD3 BD2 (306 to 417 residues) by fluorescence polarization assay
Target sequence in this assay (Q15059 whole entry, the tested form may be a part, canonical isoform): as the sequence (Q15059 whole entry, the tested form may be a part, canonical isoform) above

[32] = AUC (0 to t) in ICR mouse at 15 mg/kg, po measured upto 24 hrs by LC-MS/MS analysis; assay type: ADME, organism-based; set-up: time < 24 hr, dose 15 mg/kg, route oral; details: in vivo
[33] = tested on: MV4-11; test: Antitumour activity against human MV4-11 cells xenografted in BALB/c nu/nu mouse assessed as tumour growth inhibition at 150 mg/kg, po via gavage administered once daily for 21 days and measured every 2 to 3 days by vernier caliper method relative to control; assay type: functional; details: MV4-11, po, read-out: GI
[34] = tested on: MV4-11; test: Decrease in c-Myc protein expression in human MV4-11 cells incubated for 24 hrs by western blot analysis; assay type: functional, cell-based
[35] = tested on: HepG2; test: Downregulation of G6PC in human HepG2 cells after 4 hrs by qRT-PCR analysis; assay type: functional, cell-based
[36] = tested on: HepG2; test: Downregulation of […] in human HepG2 cells after 4 hrs by qRT-PCR analysis; assay type: functional, cell-based
[37] = biological target: T3, Bromodomain-containing protein 4; test: Binding affinity to human recombinant BRD4 BD2 (333 to 460 residues) by fluorescence polarization assay
[38] = tested on: MV4-11; test: Increase in p21 protein expression in human MV4-11 cells incubated for 24 hrs by western blot analysis; assay type: functional, cell-based
[39] = tested on: MV4-11; test: Antitumour activity against human MV4-11 cells xenografted in BALB/c nu/nu mouse assessed as tumour growth inhibition at 60 mg/kg, po via gavage administered once daily for 21 days and measured every 2 to 3 days by vernier caliper method relative to control; assay type: functional; details: MV4-11, po, read-out: GI
[40] = biological target: T1, Bromodomain-containing protein 3; test: Binding affinity to human recombinant BRD3 BD1 (24 to 144 residues) by fluorescence polarization assay
Target sequence in this assay (Q15059 whole entry, the tested form may be a part, canonical isoform): as above

[41] = tested on: MV4-11; test: Antiproliferative activity against human MV4-11 cells assessed as cell growth inhibition after 4 days by CCK8 assay; assay type: functional, cell-based; details: MV4-11, 96 h
[42] = tested on: MV4-11; test: Antitumour activity against human MV4-11 cells xenografted in BALB/c nu/nu mouse assessed as upregulation of p21 expression level in tumor tissue at 150 mg/kg, po administered via gavage as a single dose measured after 6 hrs by western blot analysis; assay type: functional
[43] = biological target: T2, Bromodomain-containing protein 2; test: Binding affinity to human recombinant BRD2 BD1 (72 to 205 residues) by fluorescence polarization assay
Target sequence in this assay (P25440 whole entry, the tested form may be a part, canonical isoform): as the sequence (P25440 whole entry, the tested form may be a part, canonical isoform) above

[44] = Toxicity in BALB/c nu/nu mouse xenografted with human MV4-11 cells assessed as decrease in body weight at 150 mg/kg, po via gavage once daily for 21 days and measured every 2 to 3 days relative to control; assay type: organism-based; set-up: scale not given: the % may be the effect or the level left; details: in vivo
[45] = biological target: T4, Bromodomain testis-specific protein; test: Binding affinity to human partial length BRDT bromodomain 1 isoform b (N21 to E137 residues) expressed in bacterial expression system by bromoscan assay
[46] = tested on: HepG2; test: Downregulation of ARID5B in human HepG2 cells after 4 hrs by qRT-PCR analysis; assay type: functional, cell-based
[47] = Toxicity in BALB/c nu/nu mouse xenografted with human MV4-11 cells assessed as decrease in body weight at 60 mg/kg, po via gavage once daily for 6 days and measured every 2 to 3 days relative to control; assay type: organism-based; set-up: scale not given: the % may be the effect or the level left; details: in vivo

## Cc1nnc2n1-c1ccc(-c3cnn(C)c3)cc1[C@H](Nc1ccc(Cl)cc1)CC2
[1]
  bioavailability: 59.1%
[2]
  inhibition: Dose-dependent effect
[3]
  AUC(0-t) at 24 h: 3320 ng·h/mL
[4]
  clearance: 25 mL/min/kg
[5]
  inhibition: Dose-dependent effect
[6]
  inhibition in vivo at 150 mg/kg: 18%
[7]
  Selectivity ratio: 5
[8]
  Kd: 45 nM
[9]
  Ki: 3.1 nM
[10]
  Kd: 26 nM
[11]
  Kd: 2.6 nM
[12]
  inhibition in vivo at 100 mg/kg: 58%
[13]
  Kd: 12 nM
[14]
  Selectivity ratio: 38
[15]
  Cmax: 2210 ng/mL
[16]
  IC50: 16.7 nM
[17]
  Vd: 0.94 L/kg
[18]
  Kd: 3 nM
[19]
  inhibition in vivo at 150 mg/kg: 43%
[20]
  half-life: 34.8 min
[21]
  Ki: 80 nM
[22]
  inhibition in vivo at 150 mg/kg: 30%
[23]
  Cmax: 5420 ng/mL
[24]
  Activity: Dose-dependent effect
[25]
  Ratio Ki: 15
[26]
  Selectivity ratio: 7
[27]
  Kd: 3.5 nM
[28]
  Selectivity ratio: 21
[29]
  Kd: 1.2 nM
[30]
  half-life: 57 min
[31]
  Ki: 5.3 nM
[32]
  AUC(0-t) at 24 h: 5890 ng·h/mL
[33]
  inhibition in vivo at 150 mg/kg: 67%
[34]
  inhibition: Dose-dependent effect
[35]
  inhibition: Dose-dependent effect
[36]
  inhibition: Dose-dependent effect
[37]
  Ki: 7.3 nM
[38]
  Activity: Dose-dependent effect
[39]
  inhibition in vivo at 60 mg/kg: 47%
[40]
  Ki: 77.9 nM
[41]
  IC50: 27 nM
[42]
  Activity: 46%
[43]
  Ki: 95.5 nM
[44]
  Activity: 7%
[45]
  Kd: 64 nM
[46]
  inhibition: Dose-dependent effect

## CCNC(=O)C[C@@H]1N=C(c2ccc(Cl)cc2)c2cc(OC)ccc2-n2c(C)nnc21 [MOLIBRESIB]
[47]
  Activity: 11%
